Reference: patent publication US8022235B2, “Compositions of phospholipid ether boronic acids and esters and methods for their synthesis and use” (Cellectar, Inc., priority 2007, dated 2011)

Key:
animal tumor models = test: Imaging and biodistribution across animal tumor models (general statements)
Text: See, for example, U.S. patent application Ser. Nos. 10/906,687, 11/177,740, 11/316,620 and 11/382,645. Due to deficiencies in metabolic phospholipase enzymes in the membranes of malignant tumor cells, the prevailing hypothesis for this specificity is that phospholipid ether analogs become trapped exclusively in tumor cell membranes because of their inability to become metabolized and eliminated by the cancerous cell. Thus, the differential clearance rates of phospholipid ethers from normal cells versus neoplastic tumor cells are responsible for this specificity.
The reason for the retention of PLE and analogs in cancer cells remains unknown. Without being held to any particular theory, however, the prevailing hypothesis, is that radioiodinated PLE and APC analogs become trapped in tumor cell membranes because of their inability to be metabolized and eliminated. On the other hand, such lipid molecules are metabolized and cleared by normal tissues, including the liver.
These PLE analogs are specifically designed to incorporate aromatic radioiodine in order to render the molecule stable towards in vivo deiodination.

Mammary SCC and ACC = test: Imaging and tissue distribution, tumor model; therapeutic responses at imaging doses; assay type: in vivo, Apc^Min/+mouse; details: single intravenous injection, ^125I-labeled, imaging dose 15-20 μCi/20 g mouse
Text: (§1) During the course of mouse tumor uptake and retention studies with “imaging” doses (15-20 μCi/20 g mouse) of ^125I-labeled NM404, several apparent therapeutic responses have been observed (unpublished results). […] Some of these animals also lost all hair above larger mammary tumors at around 8 days after injection. Moreover, these mice also get intestinal tumors and usually suffer from intestinal bleeding resulting in severe anemia, which renders their feet white. […] Another compelling example of tumor regression is illustrated in FIG. 13. Two litter mates each received SCC1 and SCC6 xenografts in their left and right flanks, respectively. One mouse received a single injection of ^125I-NM404 (20 μCi). […] These coincidental findings were reconfirmed in two separate age-matched groups each involving more than 6 mice.

[1] = system: PC3 human prostate cancer xenografts; test: Single-dose 125I-NM404 treatment, tumor volume, PC3 xenografts; assay type: in vivo, SCID mice; details: single dose 250 μCi and 500 μCi, n=6 per group
Description: Tumor volumes were calculated using formula (width)^2×(length)/2 and expressed as mean±SEM, n=6 for each group. ⋄ Cold NM404, control;
(§2) The inventors have previously shown that ^125I-labeled PLE analogs such as NM404 are effective in targeting tumor therapies to tumor cells following single injection and fractionated dosing. For assessment of efficacy of ^125I-NM404 treatment, assessments of tumor volume were made until 10 weeks post-injection or until no animal in the control group was alive, whatever came first. Summarizing the results, control animals show rapidly growing tumors over the 10-week assessment period. See, FIGS. 2 and 3. […] Tumor volumes are stable and the same tumors appear “collapsed” (the tumor surface has caved in). Additionally, the hair above the tumors fell off confirming substantial accumulation of radioactivity in these tumors, FIG. 4. […] (See also, for example, U.S. patent application Ser. No. 11/671,403 hereby incorporated in its entirety for all purposes.)

SCC1 and 6 = test: Imaging and tissue distribution, tumor model; tumor regression; assay type: in vivo
Text: as §1

[2] = system: A549 human non-small cell lung cancer xenografts; test: Single-dose 125I-NM404 treatment, tumor volume, A549 xenografts; assay type: in vivo, SCID mice
Text: FIG. 3 illustrates antitumor effect of single-dose treatment with ^125I-125-NM404 at doses of 50 (∘), 150 (□), 250 (⋄) and 500 (∘) μCi in SCID mice bearing A549 human non-small cell lung cancer xenografts. In FIG. 3, control animals show rapidly growing tumors over the 10-week assessment period. […] Tumor volumes are stable and some tumors appear “collapsed” (the tumor surface has collapsed). Additionally, hair above the tumors fell off confirming substantial accumulation of radioactivity in these tumors.
FIG. 4 is an image showing one of the tumor-bearing animals treated with 250 μCi of ^125I-NM404 at 4 weeks following injection. The hair above the tumor has fallen off, apparently due to the significant accumulation of radioactivity in the tumor. […] The measurement method for determining outer tumor dimensions may have underestimated tumor volume response following dosing with ^125I-NM404;
as §2

Adrenal RL-251 = test: Imaging and tissue distribution, tumor model; assay type: in vivo, SCID Mouse; details: days 1 through 14

SMILES: C[N+](C)(C)CCOP(=O)([O-])OCCCCCCCCCCCCCCCCCCc1ccc([125I])cc1 [^125I-NM404]
- time over which tumors could be imaged (animal tumor models; mammary and prostate tumors in mice): > 60 days
- duration of tumor retention (animal tumor models; mice, post-injection): 20 to 60 days
- tumor growth (Mammary SCC and ACC): tumor growth remains static
- change in tumor volume / primary tumor growth [1]: significant effects in inhibiting the progression of primary tumor growth
- tumor regression (SCC1 and 6; by day 41 after injection (FIG. 12)): significantly reduced
- health of treated animal (SCC1 and 6; single injection 20 μCi): quite healthy 80 days after injection
- tumor regression (SCC1 and 6; single injection 20 μCi, SCC1 and SCC6 flank xenografts, untreated litter mate died 21 days later): regressed significantly
- tumor volume vs control ([2]; 50 μCi dose group): did not show any difference when compared with control animals
- tumor volume vs control ([2]; 150, 250 and 500 μCi dose groups): substantial and prolonged treatment effect
- effect on the tumor (appearance) ([2]; 250 μCi, 4 weeks following injection (FIG. 4)): causes central necrosis
- dose dependence of effect on tumor volume ([2]; single dose 50-500 μCi): dose-linear effect
- tumor volume vs control ([2]; single dose 50 and 150 μCi (FIG. 3 legend)): did not show any difference when compared to control animals
- tumor volume vs control ([2]; single dose 250 and 500 μCi (FIG. 3 legend)): substantial and prolonged treatment effect
- tissue distribution, blood, spleen and kidney (Adrenal RL-251): distribution in blood, spleen and kidney reduced
- tissue distribution, tumor (Adrenal RL-251): accumulation in the tumor increased
